Common to all, as to type: physicochemical
A short description of series [1]: Solubility in formulation vehicles with different solubilizers. To be noted: for Solubility in vehicle containing Solutol 15 HS compared to polyoxyethylated surfactants: comparison in words; for solubility at 8 weeks: read-out: Solubility (mg/ml) measured after 8 weeks. The text has this: Table 1 summarizes solubility of Cmpd 1 in vehicles with 4 different solubilizers over a range of temperatures.

A short description of series [2]: Stability of Cmpd 1 in formulations, impurities by percent area LC. The note with it: macrogol 15 hydroxystearate vs PS80 formulation of Table 3; 25° C. and 40° C. storage; FIGS. 2A-D. How it is done:
FIGS. 2A-D: Stability results for Cmpd 1 in formulations containing either polysorbate 80 (PS80) or macrogol 15 hydroxystearate (Sol-2) as solubilizer as shown in Table 3. See Examples. […] Impurity amounts were calculated by percent area by liquid chromatography (LC). FIG. 2A: 25° C. storage, total impurities. FIG. 2B: 25° C. storage, major degradation product. FIG. 2C: 40° C. storage, total impurities. FIG. 2D: 40° C. storage, major degradation product. Legend: as in FIG. 1.

A short description of series [3]: Stability of Cmpd 2 in formulations, percent remaining by LC. How it is done: FIG. 1. See Examples. Samples were stored at 25° C. Axes: x-axis (time, months); y-axis (stability of Cmpd 2 as measured by percent remaining by liquid chromatography, LC). Legend: macrogol 15 hydroxystearate (box); polysorbate 80 (diamond).
See Examples. […] Axes: x-axis (time, months); y-axis (stability of Cmpd 2 as measured by percent remaining by liquid chromatography, LC). Legend Formulation PSI, storage 40° C./20% RH, % remaining by LC (Diamond); Formulation Sol1, storage 40° C./20% RH, % remaining by LC (Square); Formulation PSI, storage 25° C./40% RH, % remaining by LC (Triangle); Formulation Sol1, storage 25° C./40% RH, % remaining by LC (cross); Formulation PSI, storage 5° C., % remaining by LC (Asterix); Formulation Sol1, storage 5° C., % remaining by LC (circle).
Axes: x-axis (time, months); y-axis (stability of Cmpd 2 as measured by percent remaining by liquid chromatography, LC). Legend Formulation #2, storage 5°, % remaining by LC (Diamond); Formulation #2, storage 25° C./40% RH, % remaining by LC (Square); Formulation #2, storage 30° C./60% RH, % remaining by LC (Triangle); Formulation #5, storage 5° C., % remaining by LC (cross); Formulation #5, storage 25° C./40% RH, % remaining by LC (Asterix); Formulation #5, storage 30° C./60% RH, % remaining by LC (circle).

Series [4] is described as follows: Cmpd 4 solubility in Solutol HS 15 vehicles.

In brackets after ≈: the same amount, converted by molar mass. Where two headings read alike, the source gives them in different places.

As for `CCCCC[C@H](O)c1ccc(N2C(=O)CC[C@@H]2COCc2ccc(C(=O)OC(C)C)s2)cc1` [Cmpd 1, isopropyl 5-((((R)-1-(4-((S)-1-hydroxyhexyl)phenyl)-5-oxopyrrolidin-2-yl)methoxy)methyl)thiophene-2-carboxylate], the “Solubility in vehicle containing Solutol 15 HS compared to polyoxyethylated surfactants” value in series [1] is reported as “higher than that containing POE40 stearate or polysorbate 20, but slightly lower than that containing Polysorbate 80”. Moreover, the solubility at 8 weeks in series [1] (formulation vehicle with 1% POE 40 Stearate, aqueous with cosolvent or surfactant or cyclodextrin, vehicle with 1% POE 40 Stearate, 5 °C) turned out to be 1.27 mg/mL (≈ 2680 µM); in series [1] (formulation vehicle with 1% POE 40 Stearate, aqueous with cosolvent or surfactant or cyclodextrin, vehicle with 1% POE 40 Stearate, 25 °C), 1.21 mg/mL (≈ 2560 µM); in series [1] (formulation vehicle with 1% POE 40 Stearate, aqueous with cosolvent or surfactant or cyclodextrin, vehicle with 1% POE 40 Stearate, 40 °C), 1.15 mg/mL (≈ 2430 µM); in series [1] (formulation vehicle with 1% Polysorbate 20, aqueous with cosolvent or surfactant or cyclodextrin, vehicle with 1% Polysorbate 20, 5 °C), 1.24 mg/mL (≈ 2620 µM); in series [1] (formulation vehicle with 1% Polysorbate 20, aqueous with cosolvent or surfactant or cyclodextrin, vehicle with 1% Polysorbate 20, 25 °C), 1.18 mg/mL (≈ 2490 µM); in series [1] (formulation vehicle with 1% Polysorbate 20, aqueous with cosolvent or surfactant or cyclodextrin, vehicle with 1% Polysorbate 20, 40 °C), 1.05 mg/mL (≈ 2220 µM). Moreover, the solubility at 8 weeks in series [1] (formulation vehicle with 1% Polysorbate 80, aqueous with cosolvent or surfactant or cyclodextrin, vehicle with 1% Polysorbate 80, 5 °C) is 1.68 mg/mL (≈ 3540 µM); in series [1] (formulation vehicle with 1% Polysorbate 80, aqueous with cosolvent or surfactant or cyclodextrin, vehicle with 1% Polysorbate 80, 25 °C), 1.52 mg/mL (≈ 3220 µM); in series [1] (formulation vehicle with 1% Polysorbate 80, aqueous with cosolvent or surfactant or cyclodextrin, vehicle with 1% Polysorbate 80, 40 °C) it was 1.46 mg/mL (≈ 3080 µM); in series [1] (formulation vehicle with 1% Solutol HS 15, aqueous with cosolvent or surfactant or cyclodextrin, vehicle with 1% Solutol HS 15, 5 °C), 1.5 mg/mL (≈ 3170 µM); in series [1] (formulation vehicle with 1% Solutol HS 15, aqueous with cosolvent or surfactant or cyclodextrin, vehicle with 1% Solutol HS 15, 25 °C), 1.32 mg/mL (≈ 2790 µM); in series [1] (formulation vehicle with 1% Solutol HS 15, aqueous with cosolvent or surfactant or cyclodextrin, vehicle with 1% Solutol HS 15, 40 °C) it was 1.24 mg/mL (≈ 2610 µM). The “Oxidative degradation (total impurities, major degradation product)” value in series [2] is given as “prevent oxidative degradation seen in PS80 containing formulations”.

Regarding `CCCCC[C@H](O)c1ccc(N2C(=O)CC[C@@H]2CCCc2ccc(C(=O)OC(C)C)s2)cc1` [Cmpd 2, isopropyl 5-(3-((S)-1-(4-((S)-1-hydroxyhexyl)phenyl)-5-oxopyrrolidin-2-yl)propyl)thiophene-2-carboxylate], the “Solubility in vehicle containing Solutol 15 HS compared to polyoxyethylated surfactants” value in series [1] was “comparable or better solubility”. Further, the “Degradation (percent remaining by LC)” value in series [3] (macrogol 15 hydroxystearate (#2) vs PS80 (#5) formulation of Table 8, 5° C., 25° C./40% RH, 30° C./60% RH, FIG. 4) is listed as “prevent degradation seen in PS80 containing formulations at all storage conditions”; in series [3] (macrogol 15 hydroxystearate vs PS80 formulation of Table 7, 40° C./20% RH storage, FIG. 3), “prevent degradation seen in PS80 containing formulations”.

`Cc1c(COC(=O)C(C)(C)C)cccc1[C@H](C)c1c[nH]cn1` [Cmpd 4, 3-[(1S)-1-(1H-imidazol-4-yl)ethyl]-2-methylbenzyl pivalate]: the “Cmpd 4 Solubility (% w/w) <mixing overnights (>24 hr) at ambient room temperature>” value in series [4] (0.1% Solutol HS 15, adjusted to pH 5.5, final pH 5.9 post-filtration) is 0.07 % w/w; in series [4] (0.1% Solutol HS 15, adjusted to pH 6.5, final pH 6.7 post-filtration) it was 0.02 % w/w; in series [4] (0.5% Solutol HS 15, adjusted to pH 5.5, final pH 6.1 post-filtration), 0.11 % w/w; in series [4] (0.5% Solutol HS 15, adjusted to pH 6.5, final pH 6.8 post-filtration), 0.06 % w/w; in series [4] (1.0% Solutol HS 15, adjusted to pH 5.5, final pH 6.1 post-filtration) it was 0.16 % w/w; in series [4] (1.0% Solutol HS 15, adjusted to pH 6.5, final pH 6.8 post-filtration) it was 0.10 % w/w.

(Values after patent publication US20230241030A1, “MACROGOL 15 HYDROXYSTEARATE FORMULATIONS” (Allergan, Inc., priority 2011, published 2023).)
